Laboratory results as given in patent US9844542B2, “Substituted imidazopyridine and triazolopyridine compounds as negative allosteric modulators of mGluR5” (Vanderbilt University, priority 2013, dated 2017).
Several values for one entry are separate records, joined by “and”; a condition that tells them apart may be missing. Identical values can stand only once.

Molecular target: T1, rat mGluR5 (Rattus norvegicus, UniProt P31424)
T1 construct: expressed in transfected cells
Experiment: mGluR5 calcium mobilization assay (FDSS, Fluo-4) in HEK 293A cells stably expressing rat mGluR5
Assay type: cell-based
Settings: HEK cells transfected with rat mGluR5; antagonism of glutamate EC80 response; ± = standard error of at least three experiments
Description: Human embryonic kidney (HEK) cells transfected with rat or human mGluR5 were plated in clear bottom assay plates for assay in a Functional Drug Screening System (FDSS). The cells were loaded with a Ca^2+-sensitive fluorescent dye (e.g., Fluo-4), and the plates were washed and placed in the FDSS instrument. Test compound was applied to cells 3 seconds after baseline readings were taken. Cells were incubated with the test compounds for 140 seconds and then stimulated with an EC20 concentration of an mGluR5 agonist (e.g., glutamate, 3,5-dihydroxyphenylglycine, or quisqualate); 60-80 seconds later an EC80 concentration of agonist was added and readings taken for an additional 40 seconds. Data were collected at 1 Hz. […] Concentration response curves were generated using a four parameter logistical equation.
The above described assay was operated in two modes. In the first mode (utilizing a triple add protocol), a range of concentrations of the present compounds were added to cells, followed by two single fixed concentrations of agonist (EC20 followed by EC80). If a compound acted as a potentiator, an EC50 value for potentiation of the EC20 response and a maximum extent of potentiation by the compound at this concentration of agonist was determined by non-linear curve fitting. If a compound acted as an antagonist, an IC50 value for antagonism of the EC80 response and a maximum extent of antagonism by the compound at this concentration of agonist was determined by non-linear curve fitting. In the second mode (utilizing a double add protocol), several fixed concentrations of the present compounds were added to various wells on a plate, followed by a range of concentrations of agonist for each concentration of present compound; the EC50 values for the agonist at each concentration of compound were determined by nonlinear curve fitting. A decrease in the EC50 value of the agonist with increasing concentrations of the present compounds (a leftward shift of the agonist concentration-response curve) is an indication of the degree of mGluR5 positive allosteric modulation at a given concentration of the present compound. An increase in the EC50 value of the agonist with increasing concentrations of the present compounds (a rightward shift of the agonist concentration response curve) is an indication of the degree of mGluR5 antagonism at a given concentration of the present compound. The second mode also indicates whether the present compounds also affect the maximum response to mGluR5 to agonists.
The mGluR5 activity was determined using the calcium mobilization assays in human embryonic kidney cells as described herein below, wherein the human embryonic kidney cells were transfected with rat mGluR5. The mGluR5 activity data for some compounds are shown as the average of at least three experiments with the standard error in these cases. If no error is indicated for the mGluR5 activity, the values given represent the results from a single experiment or the average of two experiments. The compounds in Table 1 were synthesized with methods identical or analogous to those shown herein. The requisite starting materials were commercially available, described in the literature, or readily synthesized by one skilled in the art of organic synthesis.
GluMax is the amplitude of response in the presence of 30 μM test compound as a percentage of maximal response (100 μM glutamate). Partial antagonists display concentration-response curves (CRCs) that plateau above 10%.
The preparation of rat mGluR5 stable cell-lines is as previously described (e.g. see Romano et al. J Biol. Chem. 1996 Nov. 8; 271(45):28612-6).

T1 sequence (P31424 21-1171 isoform P31424-2 limits assumed): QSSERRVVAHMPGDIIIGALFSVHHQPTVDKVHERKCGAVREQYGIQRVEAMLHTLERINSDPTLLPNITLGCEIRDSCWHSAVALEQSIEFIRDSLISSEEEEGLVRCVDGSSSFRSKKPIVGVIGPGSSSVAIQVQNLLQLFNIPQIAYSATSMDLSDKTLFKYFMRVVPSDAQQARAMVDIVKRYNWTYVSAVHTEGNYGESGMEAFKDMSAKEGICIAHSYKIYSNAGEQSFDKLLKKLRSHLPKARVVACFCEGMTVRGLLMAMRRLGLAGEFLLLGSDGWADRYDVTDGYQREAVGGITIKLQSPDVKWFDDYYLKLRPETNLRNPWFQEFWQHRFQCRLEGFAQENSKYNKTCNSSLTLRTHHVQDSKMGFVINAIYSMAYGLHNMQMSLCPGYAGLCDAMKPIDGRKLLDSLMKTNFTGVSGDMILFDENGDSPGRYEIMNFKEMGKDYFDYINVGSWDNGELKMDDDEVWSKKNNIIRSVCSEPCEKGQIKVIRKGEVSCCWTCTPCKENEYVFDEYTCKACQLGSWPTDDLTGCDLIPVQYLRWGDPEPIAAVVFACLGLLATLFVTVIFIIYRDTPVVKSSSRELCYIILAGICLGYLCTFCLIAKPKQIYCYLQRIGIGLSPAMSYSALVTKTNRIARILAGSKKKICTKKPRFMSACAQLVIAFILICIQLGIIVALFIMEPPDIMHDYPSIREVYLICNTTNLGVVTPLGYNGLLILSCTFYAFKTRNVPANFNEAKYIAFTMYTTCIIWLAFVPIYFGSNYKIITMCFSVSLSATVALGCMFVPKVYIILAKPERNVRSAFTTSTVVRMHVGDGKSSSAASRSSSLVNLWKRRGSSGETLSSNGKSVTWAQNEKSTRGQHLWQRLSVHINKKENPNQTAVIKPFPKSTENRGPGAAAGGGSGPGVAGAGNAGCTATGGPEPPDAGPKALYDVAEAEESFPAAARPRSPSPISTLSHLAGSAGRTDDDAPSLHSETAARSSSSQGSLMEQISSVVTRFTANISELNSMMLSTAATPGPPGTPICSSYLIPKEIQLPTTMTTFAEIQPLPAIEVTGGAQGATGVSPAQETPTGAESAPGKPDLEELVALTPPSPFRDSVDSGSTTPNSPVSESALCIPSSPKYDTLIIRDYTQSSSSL

Compound | IC50
COc1cncc(Oc2cc(C(=O)Nc3ccc(F)c(C)n3)c3nncn3c2)c1 | 10300 nM
Cc1cncc(Oc2cc(C(=O)Nc3ccc(F)cn3)c3ncnn3c2)c1 | 94 nM
COc1cncc(Oc2cc(C(=O)Nc3ccccn3)c3ncnn3c2)c1 | 99 nM
COc1cncc(Oc2cc(C(=O)Nc3ccc(C)cn3)c3ncnn3c2)c1 | 218 nM
COc1cccc(NC(=O)c2cc(Oc3cncc(F)c3)cn3ccnc23)n1 | 94 nM
CCc1cccc(NC(=O)c2cc(Oc3cncc(F)c3)cn3ncnc23)n1 | 101 nM
O=C(Nc1ccc(F)cn1)c1cc(Oc2cncc(OC(F)F)c2)cn2ncnc12 | 127 nM
[2H]c1nc(NC(=O)c2cc(Oc3cncc(F)c3)cn3cnnc23)c([2H])c([2H])c1[2H] | 45 nM
O=C(Nc1ccc(F)cn1)c1cc(Oc2cncc(F)c2)cn2ccnc12 | 12 nM
O=C(Nc1nc(CF)cs1)c1cc(Oc2cncnc2)cn2ncnc12 | 244 nM
COc1cncc(Oc2cc(C(=O)Nc3cccc(OC)n3)c3ncnn3c2)c1 [drawing 305] | 334 nM
Cc1nc(NC(=O)c2cc(Oc3cncc(F)c3)cn3cnnc23)ccc1F | 164 nM
COc1cncc(Oc2cc(C(=O)Nc3ccc(F)cn3)c3nccn3c2)c1 | 40 nM
[2H]c1nc(NC(=O)c2cc(Oc3cncc(OC)c3)cn3cnnc23)c([2H])c([2H])c1[2H] | 1230 nM
Cc1cccc(NC(=O)c2cc(Oc3cccnc3)cn3ncnc23)n1 | 41 nM
N#Cc1cncc(Oc2cc(C(=O)Nc3ccc(F)cn3)c3nccn3c2)c1 | 51 nM
Cc1cccc(NC(=O)c2cc(Oc3cncc(F)c3)cn3nc(C)nc23)n1 | 199 nM
Cc1csc(NC(=O)c2cc(Oc3cncc(Cl)c3)cn3cnnc23)n1 | 666 nM
Cc1ccc(NC(=O)c2cc(Oc3cncc(C)c3)cn3ncnc23)nc1 | 267 nM
COc1cncc(Oc2cc(C(=O)Nc3ccccn3)c3nccn3c2)c1 | 40 nM
O=C(Nc1ccc(F)cn1)c1cc(Oc2cncc(F)c2)cn2ncnc12 [drawing 179] | 23 nM and 25 nM
O=C(Nc1ccc(F)cn1)c1cc(Oc2cc(F)cnc2F)cn2ncnc12 | 138 nM
O=C(Nc1ccccn1)c1cc(Oc2cncc(Cl)c2)cn2cnnc12 | 176 nM
O=C(Nc1nc(C2CC2)cs1)c1cc(Oc2cncnc2)cn2ncnc12 | 161 nM
[2H]c1nc(NC(=O)c2cc(Oc3cccnc3)cn3ncnc23)c([2H])c([2H])c1[2H] | 26 nM
Cc1cncc(Oc2cc(C(=O)Nc3cccc(F)n3)c3ncnn3c2)c1 | 89 nM

Compound | IC50
COc1cncc(Oc2cc(C(=O)Nc3cccc(C)n3)c3nncn3c2)c1 | 2150 nM
COc1cccc(NC(=O)c2cc(Oc3cncnc3)cn3cnnc23)n1 | 162 nM
CCc1cccc(NC(=O)c2cc(Oc3cccnc3)cn3ncnc23)n1 | 114 nM
N#Cc1cncc(Oc2cc(C(=O)Nc3ccc(F)cn3)c3nncn3c2)c1 | 1430 nM
Cc1ccc(NC(=O)c2cc(Oc3cncnc3)cn3ncnc23)nc1 | 138 nM
O=C(Nc1ccc(F)cn1)c1cc(Oc2cncc(F)c2)cn2cnnc12 [drawing 160] | 28 ± 7 nM
COc1ccc(NC(=O)c2cc(Oc3cncc(Cl)c3)cn3ncnc23)nc1 | 92 nM
CCc1cccc(NC(=O)c2cc(Oc3cnc(C)nc3)cn3cnnc23)n1 | > 10000 nM
COc1cncc(Oc2cc(C(=O)Nc3nc(C)cs3)c3nccn3c2)c1 | 66 nM
O=C(Nc1ccccn1)c1cc(Oc2cncc(O)c2)cn2ncnc12 | 44 nM
Cc1csc(NC(=O)c2cc(Oc3cncc(F)c3)cn3nc(C)nc23)n1 | 135 nM
Cc1ncc(Oc2cc(C(=O)Nc3cccc(F)n3)c3nccn3c2)cn1 | 5780 nM
O=C(Nc1cccc(F)n1)c1cc(Oc2cncc(F)c2)cn2cnnc12 | 50 nM
[2H]c1nc(NC(=O)c2cc(Oc3cncc(F)c3)cn3ccnc23)c([2H])c([2H])c1[2H] | 15 nM
Cc1ccc(NC(=O)c2cc(Oc3cncc(F)c3)cn3ncnc23)nc1 | 53 nM
COc1cncc(Oc2cc(C(=O)Nc3cccc(F)n3)c3ncnn3c2)c1 | 258 nM
COc1cccc(NC(=O)c2cc(Oc3cncc(C)c3)cn3ncnc23)n1 | 260 nM
Cc1ccc(NC(=O)c2cc(Oc3cncc(Cl)c3)cn3ncnc23)nc1 | 135 nM
[2H]c1nc(NC(=O)c2cc(Oc3cncc(OC)c3)cn3ncnc23)c([2H])c([2H])c1[2H] | 104 nM
Cc1nc2c(C(=O)Nc3ccc(F)cn3)cc(Oc3cncc(F)c3)cn2n1 | 310 nM
Cc1cccc(NC(=O)c2cc(Oc3cncc(F)c3)cn3ncnc23)n1 | 58 nM
Cc1csc(NC(=O)c2cc(Oc3cncc(F)c3)cn3ncnc23)n1 | 49 nM
Cc1csc(NC(=O)c2cc(Oc3cnc(F)c(F)c3)cn3ncnc23)n1 | 119 nM
COc1cncc(Oc2cc(C(=O)Nc3cccc(OC)n3)c3nncn3c2)c1 | > 10000 nM
Cc1cncc(Oc2cc(C(=O)Nc3ccccn3)c3ncnn3c2)c1 | 57 nM
Cc1nnc2c(C(=O)Nc3ccc(F)cn3)cc(Oc3cncc(F)c3)cn12 | 360 nM

Compound | IC50
COc1cncc(Oc2cc(C(=O)Nc3ccc(C)cn3)c3nncn3c2)c1 | 3600 nM
Cc1cncc(Oc2cc(C(=O)Nc3nc(C)cs3)c3ncnn3c2)c1 | 128 nM
Cc1csc(NC(=O)c2cc(Oc3cnc(C)nc3)cn3ccnc23)n1 | 1090 nM
O=C(Nc1ccccn1)c1cc(Oc2cncnc2)cn2ncnc12 | 219 nM
COc1cncc(Oc2cc(C(=O)Nc3ccc(F)c(C)n3)c3ncnn3c2)c1 | 1070 nM
COc1ccc(NC(=O)c2cc(Oc3cncc(Cl)c3)cn3cnnc23)nc1 | 624 nM
O=C(Nc1cccc(F)n1)c1cc(Oc2cncc(F)c2)cn2ncnc12 | 31 nM
Cc1csc(NC(=O)c2cc(Oc3cncc(C#N)c3)cn3cnnc23)n1 | 1210 nM
COc1ccc(NC(=O)c2cc(Oc3cncc(C)c3)cn3ncnc23)nc1 | 275 nM
N#Cc1cncc(Oc2cc(C(=O)Nc3ccccn3)c3nncn3c2)c1 | 674 nM
COc1cccc(NC(=O)c2cc(Oc3cncc(Cl)c3)cn3ncnc23)n1 | 236 nM
Cc1nc2c(C(=O)Nc3ccccn3)cc(Oc3cncc(F)c3)cn2n1 | 97 nM
O=C(Nc1ccc(F)cn1)c1cc(Oc2cccnc2)cn2ncnc12 | 25 nM
CCc1cccc(NC(=O)c2cc(Oc3cncc(Cl)c3)cn3ncnc23)n1 | 264 nM
COc1cncc(Oc2cc(C(=O)Nc3cccc(F)n3)c3nncn3c2)c1 | 4130 nM
Cc1ncc(Oc2cc(C(=O)Nc3ccccn3)c3nncn3c2)cn1 | 9410 nM
CCc1cccc(NC(=O)c2cc(Oc3cncc(OC)c3)cn3cnnc23)n1 [drawing 282] | 1420 nM
Cc1nc2c(C(=O)Nc3cccc(F)n3)cc(Oc3cncc(F)c3)cn2n1 | 410 nM
Cc1nc2c(C(=O)Nc3ccc(F)c(C)n3)cc(Oc3cncc(F)c3)cn2n1 | 846 nM
CCc1cccc(NC(=O)c2cc(Oc3cncc(F)c3)cn3nc(C)nc23)n1 | 623 nM
COc1ccc(NC(=O)c2cc(Oc3cncc(OC)c3)cn3ccnc23)nc1 | 85 nM
Cc1ccc(NC(=O)c2cc(Oc3cncc(F)c3)cn3ccnc23)nc1 | 48 nM
COc1cncc(Oc2cc(C(=O)Nc3nc(C)cs3)c3ncnn3c2)c1 | 139 nM
N#Cc1cncc(Oc2cc(C(=O)Nc3ccccn3)c3ncnn3c2)c1 | 105 nM
COc1cncc(Oc2cc(C(=O)Nc3cccc(C)n3)c3nccn3c2)c1 | 80 nM
[2H]c1nc(NC(=O)c2cc(Oc3cncc(C)c3)cn3ncnc23)c([2H])c([2H])c1[2H] | 55 nM
